ChEMBL document CHEMBL1201862, “PubChem BioAssay data set” (2004)
Active and inactive are the calls of the source.

Experiments:
[1] = system: Streptococcus sp. 'group A'; experiment: growth inhibition of control SK(-) GAS strain, dose response, counter-screen for streptokinase expression inhibitor project, luminescence, kanamycin, BacTiterGlo, confirmation (AID 1900); format: functional, organism-based
Streptokinase A = biological target: T1, Streptokinase A (Streptococcus pyogenes serotype M1, UniProt P10520); experiment: S. pyogenes streptokinase expression inhibitors, potency, dose response, plasminogen activation absorbance, OD405 (AID 1914); format: functional, Streptococcus pyogenes M1 GAS;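 note: secreted streptokinase activity via plasminogen activation per viability signal from cell pellet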
T1 sequence (P10520 whole entry): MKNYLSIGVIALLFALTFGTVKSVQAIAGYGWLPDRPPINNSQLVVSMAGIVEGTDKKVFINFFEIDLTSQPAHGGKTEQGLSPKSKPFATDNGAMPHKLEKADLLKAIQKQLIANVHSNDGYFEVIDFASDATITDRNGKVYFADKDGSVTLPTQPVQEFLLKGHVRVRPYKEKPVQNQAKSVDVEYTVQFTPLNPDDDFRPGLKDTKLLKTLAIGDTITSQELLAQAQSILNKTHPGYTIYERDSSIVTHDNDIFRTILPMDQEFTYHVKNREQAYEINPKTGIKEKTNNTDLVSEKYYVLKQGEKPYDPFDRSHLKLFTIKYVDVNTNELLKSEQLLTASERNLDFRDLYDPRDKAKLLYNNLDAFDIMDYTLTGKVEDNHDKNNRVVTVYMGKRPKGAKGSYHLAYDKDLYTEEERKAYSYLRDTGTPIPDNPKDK

Streptococcus = experiment: Group A Streptococcus viability loss, dose response, counter-screen for streptokinase expression inhibitor project, luminescence, BacTiterGlo (AID 1915); format: functional, organism-based;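 note: potency for reduction of bacterial viability or growth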
Troponin, cardiac muscle = Troponin, cardiac muscle (Homo sapiens, UniProt P19429+P45379+P63316); experiment: Fluorescence-based biochemical high throughput dose response assay for activators of the calcium sensitivity of cardiac Regulated Thin Filaments (RTF). [Related pubchem assays (depositor defined):AID493008, AID493018, AID504382, AID504383]; format: protein-complex assay
[2] = biological target: G-protein coupled receptor 55 (Homo sapiens, UniProt Q9Y2T6); experiment: GPR55 antagonists blocking LPI-driven arrestin recruitment, primary screen, imaging, U2OS, beta-arrestin-GFP, LPI agonist (AID 2013); format: functional;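 note: antagonist potency measured as reduced agonist-driven arrestin aggregation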
[3] = biological target: T2, Voltage-gated N-type calcium channel alpha-1B subunit/Amyloid beta A4 precursor protein-binding family A member 1 (Homo sapiens, UniProt Q00975+Q02410); format: protein assay
[4] = biological target: T2, Voltage-gated N-type calcium channel alpha-1B subunit/Amyloid beta A4 precursor protein-binding family A member 1; format: protein assay; remark: listed apart in the source
[5] = biological target: T3, Long-chain-fatty-acid--AMP ligase FadD28 (Mycobacterium tuberculosis, UniProt P9WQ59); experiment: Fluorescence polarization aasay to screen for inhibitors that compete for the binding of FadD28 to a bisubstrate Measured in Biochemical System Using Plate Reader - 2147-01_Inhibitor_Dose_CherryPick_Activity.; format: functional, Mycobacterium tuberculosis H37Rv
T3 sequence (P9WQ59 whole entry): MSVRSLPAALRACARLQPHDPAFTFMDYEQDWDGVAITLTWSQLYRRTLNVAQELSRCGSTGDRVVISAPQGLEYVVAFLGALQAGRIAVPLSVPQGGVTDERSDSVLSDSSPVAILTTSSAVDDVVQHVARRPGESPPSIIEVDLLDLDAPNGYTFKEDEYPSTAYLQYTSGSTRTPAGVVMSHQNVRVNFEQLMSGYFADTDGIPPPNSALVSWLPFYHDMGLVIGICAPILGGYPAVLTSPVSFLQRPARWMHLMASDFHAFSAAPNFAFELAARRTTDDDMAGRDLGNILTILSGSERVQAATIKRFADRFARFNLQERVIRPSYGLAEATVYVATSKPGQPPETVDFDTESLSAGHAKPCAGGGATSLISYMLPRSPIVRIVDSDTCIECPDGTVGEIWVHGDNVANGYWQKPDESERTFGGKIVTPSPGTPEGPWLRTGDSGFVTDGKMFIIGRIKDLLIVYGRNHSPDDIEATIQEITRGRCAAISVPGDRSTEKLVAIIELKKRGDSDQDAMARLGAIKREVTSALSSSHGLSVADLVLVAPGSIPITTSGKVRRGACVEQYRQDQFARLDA

[6] = biological target: T4, Corticotropin-releasing factor receptor 2/Corticotropin-releasing factor-binding protein (Homo sapiens, UniProt P24387+Q13324); experiment: Dose Response confirmation of uHTS hits for small molecule antagonists of the CRF-binding protein and CRF-R2 receptor complex.; format: functional; settings: read-out: IC50_Mean
T4 sequence (Q13324 whole entry): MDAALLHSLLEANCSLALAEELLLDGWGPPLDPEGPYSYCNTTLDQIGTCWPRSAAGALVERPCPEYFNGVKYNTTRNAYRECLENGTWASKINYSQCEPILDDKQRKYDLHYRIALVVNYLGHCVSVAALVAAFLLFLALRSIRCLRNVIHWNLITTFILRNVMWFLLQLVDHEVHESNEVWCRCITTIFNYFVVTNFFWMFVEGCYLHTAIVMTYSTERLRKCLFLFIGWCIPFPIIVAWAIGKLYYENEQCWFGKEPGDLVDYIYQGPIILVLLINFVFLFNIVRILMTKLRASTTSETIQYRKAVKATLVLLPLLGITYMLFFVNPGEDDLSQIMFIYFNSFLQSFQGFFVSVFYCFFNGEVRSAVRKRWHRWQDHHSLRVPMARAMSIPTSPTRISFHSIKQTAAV
T4 sequence (P24387 whole entry): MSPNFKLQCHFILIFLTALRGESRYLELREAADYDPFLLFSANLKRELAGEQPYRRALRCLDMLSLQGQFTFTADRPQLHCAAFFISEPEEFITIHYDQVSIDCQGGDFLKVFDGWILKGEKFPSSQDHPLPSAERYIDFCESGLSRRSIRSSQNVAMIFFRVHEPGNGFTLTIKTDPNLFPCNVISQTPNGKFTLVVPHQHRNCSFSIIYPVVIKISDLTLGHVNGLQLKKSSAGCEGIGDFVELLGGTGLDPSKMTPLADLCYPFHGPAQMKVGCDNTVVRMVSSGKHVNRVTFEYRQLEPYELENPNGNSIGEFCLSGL

[7] = biological target: FAD-linked sulfhydryl oxidase ALR (Homo sapiens, UniProt P55789); experiment: inhibitors of human ALR sulfhydryl oxidase, dose response, biochemical, H2O2 detection, luminescence, cherry-pick (AID 493248)
[8] = biological target: T4, Corticotropin-releasing factor receptor 2/Corticotropin-releasing factor-binding protein; experiment: activators of CRF receptor 2 with binding protein – uHTS hits, confirmation (AID 602473); format: functional; settings: read-out: EC50_Mean
[9] = HIV-1 Env-mediated cell fusion inhibitors, dose response, CCR5-tropic Env (AID 2279); format: functional
[10] = CRF-BP/CRF-R2 complex antagonists, dose response, cell-based, uHTS hits, 384-well (AID 651639); format: functional, Homo sapiens; settings: read-out: IC50_Mean
Cytochrome P450 2C9 = Cytochrome P450 2C9 (Homo sapiens, UniProt P11712); settings: Potency
Bcl-2-related protein A1 = biological target: T5, Bcl-2-related protein A1 (Mus musculus, UniProt Q07440); format: functional;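 note: confirmatory dose–response counterscreen on Bfl-1, used to check hits from a UBC13 polyubiquitin inhibitor campaign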
T5 sequence (Q07440 whole entry): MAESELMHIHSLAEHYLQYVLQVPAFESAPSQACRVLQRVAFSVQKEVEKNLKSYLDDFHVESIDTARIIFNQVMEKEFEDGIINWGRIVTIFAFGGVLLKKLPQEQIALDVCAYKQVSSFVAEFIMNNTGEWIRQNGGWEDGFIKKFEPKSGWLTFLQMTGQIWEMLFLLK

[11] = biological target: T6, Ubiquitin-conjugating enzyme E2 N (Homo sapiens, UniProt P61088); format: functional
T6 sequence (P61088 whole entry): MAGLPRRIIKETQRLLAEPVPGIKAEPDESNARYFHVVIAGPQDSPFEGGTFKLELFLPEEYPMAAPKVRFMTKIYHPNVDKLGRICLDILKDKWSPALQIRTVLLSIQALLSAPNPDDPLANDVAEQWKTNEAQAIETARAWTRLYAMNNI

[12] = biological target: T6, Ubiquitin-conjugating enzyme E2 N; format: functional; remark: listed apart in the source

G-protein coupled receptor 55, sequence (Q9Y2T6 whole entry): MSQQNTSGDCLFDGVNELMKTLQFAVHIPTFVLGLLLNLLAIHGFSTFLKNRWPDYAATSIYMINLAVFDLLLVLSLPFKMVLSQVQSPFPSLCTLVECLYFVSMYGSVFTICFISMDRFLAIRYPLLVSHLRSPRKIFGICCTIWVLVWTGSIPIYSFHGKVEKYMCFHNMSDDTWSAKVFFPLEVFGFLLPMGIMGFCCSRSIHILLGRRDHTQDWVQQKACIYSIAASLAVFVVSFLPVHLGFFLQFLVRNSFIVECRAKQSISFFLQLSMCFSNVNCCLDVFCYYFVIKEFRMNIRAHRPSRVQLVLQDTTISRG
T2 sequence (Q00975 whole entry): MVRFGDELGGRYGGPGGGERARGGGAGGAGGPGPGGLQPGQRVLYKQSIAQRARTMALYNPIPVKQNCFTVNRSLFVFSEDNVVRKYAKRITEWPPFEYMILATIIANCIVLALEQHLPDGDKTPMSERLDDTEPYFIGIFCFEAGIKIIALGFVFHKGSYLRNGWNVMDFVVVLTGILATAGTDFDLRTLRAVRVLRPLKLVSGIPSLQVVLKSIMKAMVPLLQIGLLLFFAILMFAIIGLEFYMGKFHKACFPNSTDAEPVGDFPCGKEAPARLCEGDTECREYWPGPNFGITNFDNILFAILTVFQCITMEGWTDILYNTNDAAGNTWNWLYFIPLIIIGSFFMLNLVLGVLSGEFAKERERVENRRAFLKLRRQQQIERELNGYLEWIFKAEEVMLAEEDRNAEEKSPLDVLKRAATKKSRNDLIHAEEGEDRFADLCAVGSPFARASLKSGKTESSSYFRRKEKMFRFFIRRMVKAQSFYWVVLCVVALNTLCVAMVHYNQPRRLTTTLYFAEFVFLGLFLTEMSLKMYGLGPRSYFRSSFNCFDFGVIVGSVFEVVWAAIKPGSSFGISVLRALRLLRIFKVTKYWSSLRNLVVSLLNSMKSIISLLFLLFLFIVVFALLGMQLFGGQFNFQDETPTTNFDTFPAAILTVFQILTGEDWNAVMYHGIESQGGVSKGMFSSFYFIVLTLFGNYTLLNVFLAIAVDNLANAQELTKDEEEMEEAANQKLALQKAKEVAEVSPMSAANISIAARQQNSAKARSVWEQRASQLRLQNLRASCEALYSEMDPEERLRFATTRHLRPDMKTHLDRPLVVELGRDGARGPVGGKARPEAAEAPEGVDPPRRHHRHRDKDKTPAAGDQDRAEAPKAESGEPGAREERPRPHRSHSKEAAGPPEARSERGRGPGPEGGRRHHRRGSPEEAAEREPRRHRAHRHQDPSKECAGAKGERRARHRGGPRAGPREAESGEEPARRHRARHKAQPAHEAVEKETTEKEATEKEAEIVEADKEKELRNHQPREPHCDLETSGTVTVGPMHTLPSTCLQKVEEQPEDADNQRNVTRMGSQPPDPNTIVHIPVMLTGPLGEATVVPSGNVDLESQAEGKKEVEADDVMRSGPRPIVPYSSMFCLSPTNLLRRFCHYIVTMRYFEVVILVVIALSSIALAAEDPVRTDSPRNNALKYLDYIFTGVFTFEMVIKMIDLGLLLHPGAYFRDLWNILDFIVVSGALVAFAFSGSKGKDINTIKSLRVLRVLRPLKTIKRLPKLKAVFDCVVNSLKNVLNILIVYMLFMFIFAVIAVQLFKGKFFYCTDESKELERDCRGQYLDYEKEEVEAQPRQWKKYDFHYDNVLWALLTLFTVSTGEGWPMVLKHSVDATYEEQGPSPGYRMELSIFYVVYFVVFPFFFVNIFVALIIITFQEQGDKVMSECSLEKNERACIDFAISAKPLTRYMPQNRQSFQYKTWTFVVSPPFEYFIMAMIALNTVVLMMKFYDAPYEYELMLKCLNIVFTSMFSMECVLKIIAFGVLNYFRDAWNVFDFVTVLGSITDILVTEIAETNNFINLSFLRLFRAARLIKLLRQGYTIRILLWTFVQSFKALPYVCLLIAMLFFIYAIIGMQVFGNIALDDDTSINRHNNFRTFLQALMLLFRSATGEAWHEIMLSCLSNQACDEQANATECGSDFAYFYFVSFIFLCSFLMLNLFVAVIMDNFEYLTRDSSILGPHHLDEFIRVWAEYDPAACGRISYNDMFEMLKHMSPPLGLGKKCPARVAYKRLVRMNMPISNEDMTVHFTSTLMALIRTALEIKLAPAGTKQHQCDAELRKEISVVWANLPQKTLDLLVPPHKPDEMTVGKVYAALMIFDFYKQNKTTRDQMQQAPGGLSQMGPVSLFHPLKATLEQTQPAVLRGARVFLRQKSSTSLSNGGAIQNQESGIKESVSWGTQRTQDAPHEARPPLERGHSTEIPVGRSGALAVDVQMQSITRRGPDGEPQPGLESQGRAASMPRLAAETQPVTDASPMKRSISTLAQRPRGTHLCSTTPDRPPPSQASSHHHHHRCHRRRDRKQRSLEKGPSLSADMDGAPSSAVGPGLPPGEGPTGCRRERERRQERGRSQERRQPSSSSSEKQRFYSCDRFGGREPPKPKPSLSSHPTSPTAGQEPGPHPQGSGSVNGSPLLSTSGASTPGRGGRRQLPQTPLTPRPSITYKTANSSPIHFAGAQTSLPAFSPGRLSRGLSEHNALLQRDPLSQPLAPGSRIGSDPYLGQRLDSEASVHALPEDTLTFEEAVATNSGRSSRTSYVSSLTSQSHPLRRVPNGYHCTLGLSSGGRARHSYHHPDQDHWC
T2 sequence (Q02410 whole entry): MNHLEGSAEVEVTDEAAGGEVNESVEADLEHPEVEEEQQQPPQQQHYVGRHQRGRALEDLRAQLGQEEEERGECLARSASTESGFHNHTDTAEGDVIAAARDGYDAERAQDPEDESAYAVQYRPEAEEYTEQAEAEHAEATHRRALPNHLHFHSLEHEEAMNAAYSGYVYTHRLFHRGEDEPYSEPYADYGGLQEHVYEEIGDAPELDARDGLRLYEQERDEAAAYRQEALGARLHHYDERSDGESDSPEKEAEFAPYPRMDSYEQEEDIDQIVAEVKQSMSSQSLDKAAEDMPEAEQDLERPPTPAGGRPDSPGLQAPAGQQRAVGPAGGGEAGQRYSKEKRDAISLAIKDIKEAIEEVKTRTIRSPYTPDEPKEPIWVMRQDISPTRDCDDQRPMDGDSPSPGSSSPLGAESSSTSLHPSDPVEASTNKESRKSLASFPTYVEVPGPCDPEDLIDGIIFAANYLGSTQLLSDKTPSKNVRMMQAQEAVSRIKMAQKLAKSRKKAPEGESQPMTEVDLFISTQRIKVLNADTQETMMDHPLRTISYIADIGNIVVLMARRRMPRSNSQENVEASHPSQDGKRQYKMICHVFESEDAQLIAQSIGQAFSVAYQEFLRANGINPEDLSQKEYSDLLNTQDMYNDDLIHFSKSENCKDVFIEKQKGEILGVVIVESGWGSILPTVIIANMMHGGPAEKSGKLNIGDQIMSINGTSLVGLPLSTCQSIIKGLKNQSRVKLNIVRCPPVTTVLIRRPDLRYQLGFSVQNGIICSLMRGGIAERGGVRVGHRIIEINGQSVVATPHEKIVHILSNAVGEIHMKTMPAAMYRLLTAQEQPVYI
FAD-linked sulfhydryl oxidase ALR, sequence (P55789 whole entry): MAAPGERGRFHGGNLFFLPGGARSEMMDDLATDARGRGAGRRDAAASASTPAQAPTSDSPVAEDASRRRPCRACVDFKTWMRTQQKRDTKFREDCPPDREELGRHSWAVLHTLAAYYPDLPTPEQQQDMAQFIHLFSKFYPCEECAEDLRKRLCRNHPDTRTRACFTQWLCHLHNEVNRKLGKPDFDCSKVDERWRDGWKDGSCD
Cytochrome P450 2C9, sequence (P11712 whole entry): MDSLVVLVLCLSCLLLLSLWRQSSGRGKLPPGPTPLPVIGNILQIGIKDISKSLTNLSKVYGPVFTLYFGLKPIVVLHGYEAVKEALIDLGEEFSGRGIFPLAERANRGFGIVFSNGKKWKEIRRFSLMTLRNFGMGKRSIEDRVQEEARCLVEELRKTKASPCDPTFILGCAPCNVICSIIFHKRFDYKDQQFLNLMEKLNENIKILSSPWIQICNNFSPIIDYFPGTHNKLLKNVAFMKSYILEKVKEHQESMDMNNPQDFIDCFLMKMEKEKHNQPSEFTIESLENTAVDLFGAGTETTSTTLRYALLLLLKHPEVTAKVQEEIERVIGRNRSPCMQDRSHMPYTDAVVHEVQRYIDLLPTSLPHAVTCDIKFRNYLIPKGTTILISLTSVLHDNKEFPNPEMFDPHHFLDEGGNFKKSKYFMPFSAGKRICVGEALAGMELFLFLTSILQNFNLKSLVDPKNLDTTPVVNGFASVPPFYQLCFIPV

In the case of Cc1cc(/C=C2\SC(=S)N(C)C2=O)c(C)n1-c1ccccc1O, the EC50 [1] is reported as 8.37 µM (active), the EC50 (Streptokinase A) is reported as 17.8 µM (active) and the EC50 (Streptococcus) is reported as 16.1 µM (active). The EC50 (Troponin, cardiac muscle) was 4.96 µM (active).
In the case of COc1cc(Br)c(-c2sc(Nc3ccccc3)n[n+]2-c2ccc(F)cc2)cc1OC, the IC50 [2] is reported as 11.9 µM (inactive).
With Cc1ccc(/C=C2\SC(=S)N(CCC(=O)NNC(=O)c3cccc(O)c3)C2=O)cc1 the IC50 [3] was 16 µM (active) and the IC50 [4] was > 50 µM (inactive).
With O=C(O)c1ccccc1NC(=O)c1ccccc1Nc1ccccc1 the AC50 [5] was > 100 µM (inactive), the IC50 [6] was 5.46 µM (active) and the AC50 [7] was 9.47 µM (active). The EC50 [8] was > 53 µM (inactive), the IC50 [9] was > 50 µM (active) and the IC50 [10] was > 20 µM (inactive).
In the case of CC(C)C[C@@H](CC(=O)N[C@H](CC(=O)N[C@@H]1CCNC[C@H]1C(=O)N[C@H](CC(=O)N[C@@H](CCC(=O)O)CC(=O)O)Cc1c[nH]c2ccccc12)C(C)C)NC(=O)[C@@H]1CCCC[C@H]1N, the AC50 (Cytochrome P450 2C9) is reported as 25.1 µM (inconclusive).
For Cc1[nH]c(=S)c(C#N)c(-c2ccccc2)c1C(=O)Nc1ccccc1, the IC50 (Bcl-2-related protein A1) was > 20 µM (inactive), the IC50 [11] was 13.9 µM (active) and the IC50 [12] was > 20 µM (inactive).
For CC12CNCC(C)(CN(C(c3ccccc3)c3ccccc3)C1)C2, the IC50 [2] was 5.62 µM (active).
